The subject of one series is MRSA MW2 biofilms. The series can be described thus: Biofilm persister killing assay. It counts as cell-based, S. aureus. Particulars: 16 μg/ml nTZDpa combined with 10 μg/ml gentamicin, 24 h. How it is done: Biofilm persister killing assay. An overnight culture of cells was diluted 1:200 with TSB supplemented with 0.2% glucose and 3% NaCl. A 13 mm-diameter Millipore mixed cellulose ester membrane (EMD Millipore GSWP01300) was placed at the bottom of each well of a 12-well plate (Falcon 353043). 1 mL of the diluted culture was added to each well and incubated statically at 37° C. for 24 h. The membranes were washed 3-times with PBS and transferred to a fresh 12-well plate. 1 mL of PBS containing the desired concentration of antibiotics was added to each well, and then the plate was incubated statically at 37° C. for 24 h. The membranes were washed 3 times with PBS, placed in 2-mL microcentrifuge tubes containing 1 mL PBS, and sonicated in an ultrasonic bath (Fisher Scientific FS 30) for 10 min. The sonicated samples were serially diluted and spot-plated on TSA to enumerate the number of live cells. The experiment was conducted in biological triplicate.

Series [1] in a line: Hepatic and renal toxicities (serum ALT, BUN) in the mouse thigh infection model. Conditions: 5 days. How it is done: (§1) Deep-seated mouse thigh infection model. In vivo efficacy of nTZDpa alone or in combination with gentamicin against MRSA persisters was evaluated by a previously described neutropenic mouse thigh infection model with modifications. Six-week-old female CD-I mice (20-25 g, Charles River Laboratories, Wilmington, Mass., USA) were obtained from Charles River Laboratories (Wilmington, Mass., USA). The CD-I mice were rendered neutropenic by administering 150 mg/kg and 100 mg/kg of cyclophosphamide intraperitoneally (i.p.) at 4 days and 1 day before infection, respectively. On the day of infection, overnight culture of MRSA MVV2 was washed 3-time with sterile saline and diluted to 10^7 CFU/ml in the saline. 50 μl of the diluted culture (5×10^5 CFU per mouse) was injected to the right thigh of each mouse. nTZDpa was dissolved in Kolliphor EL (Sigma-Aldrich, St Louis, Mo., USA)/ethanol 1:1 and then diluted 1:10 in saline to a final concentration of 50 mg/kg. At 24 h post-infection, groups of mice (n=10) were treated with 30 mg/kg gentamicin subcutaneously (s.c.) every 12 h, 25 mg/kg vancomycin i.p. every 24 h, 50 mg/kg nTZPpa i.p. every 24 h, or the combination of 50 mg/kg nTZDpa i.p. every 24 h and 30 mg/kg gentamicin s.c. every 12 h for 5 days. Control mice were injected with 250 μl of 10% Kolliphor EL/ethanol in saline i.p. every 24 h for 5 days. Mice were euthanized at 96 h post-infection. Blood was collected by cardiac puncture, and the infected thighs were aseptically excised, weighed, and stored at 4° C. until homogenization. To evaluate hepatic and renal toxicities, the levels of alanine aminotransferase and blood urea nitrogen were analyzed with commercially available kits, following the manufacturer's protocol (Pointe Scientific, Canton, Mich., USA). Thighs were homogenized in PBS, serially diluted with PBS, and spot-plated on TSA plates. After incubating the TSA plates at 37° C. overnight, the number of colonies were enumerated to calculate CFU/g thigh tissue. This study and all experiments were performed in accordance with guidelines approved by the Rhode Island Hospital Institutional Animal Care and Use Committee (RIH IACUC). Statistical significance among each group was analyzed by one-way ANOVA with post-hoc Tukey test using PASW Statistics 18 (SPSS Inc. Chicago, Ill., USA).

The next series has as its system E. faecium WC196. The series can be described thus: MIC assay. The format is cell-based, Enterococcus faecium. Conditions: Enterococcus faecium; E. faecium WC196; read-out: Minimum inhibitory concentration. The source says: (§2) Bacterial strains, growth conditions, and persister isolation. Methicillin-resistant S. aureus strains, MW2 BAA-1707, ATCC 33591, and JE2, methicillin-susceptible S. aureus strains, NCTC 8325, Newman, and ATCC 29213, vancomycin-resistant S. aureus strain, VRS1, Enterococcus faecium E007, vancomycin-resistant E. faecium strains, C68,^7 WB312, and WC196, Klebsiella pneumoniae WGLW2 (BEI Resources, Manassas, Va., USA), Acinetobacter baumannii ATCC 17978, Pseudomonas aeruginosa PA14, and Enterobacter aerogenes ATCC 13048 were used to test antimicrobial activity (Table 1). S. aureus strains were grown in tryptic soy broth (TSB) (BD, Franklin Lakes, N.J., USA), and E. faecium was grown in brain-heart infusion (BHI) broth (BD, Franklin Lakes, N.J., USA) at 37° C. K. pneumoniae, A. baumannii, P. aeruginosa, and E. aerogenes were grown in Luria Bertani (LB) broth (BD, Franklin Lakes, N.J., USA) at 37° C.
(§3) Minimal inhibitory concentration (MIC) assay. The MICS of antibiotics were determined by the standard micro-dilution method recommended by the Clinical and Laboratory Standards Institute. MIC assays were conducted in biological triplicate.

A further series concerns E. faecium C68. The series can be described thus: MIC assay. It counts as cell-based, Enterococcus faecium. Conditions: Enterococcus faecium; E. faecium C68; read-out: Minimum inhibitory concentration.
From the text: as §2, §3

Another series has as its system E.faecium E007. The series can be described thus: MIC assay. The format is cell-based, Enterococcus faecium. Particulars: Enterococcus faecium; E.faecium E007; read-out: Minimum inhibitory concentration.
From the text: as §2, §3

A further series relates to E. faecium WB312. Kind of series: MIC assay. The format is cell-based, Enterococcus faecium. Conditions: Enterococcus faecium; E. faecium WB312; read-out: Minimum inhibitory concentration.
From the text: as §2, §3

The subject of a further series is K. pneumoniae WGLW2. Kind of series: MIC assay. It counts as cell-based, Klebsiella pneumoniae. Particulars: Klebsiella pneumoniae; K. pneumoniae WGLW2; read-out: Minimum inhibitory concentration.
From the text: as §2, §3

For series [2], the system named is vancomycin-resistant Enterococcus faecium strains. The series can be described thus: MIC against vancomycin-resistant strains. The format is cell-based.
From the text: as §2, §3

The subject of a further series is P. aeruginosa PA14. Kind of series: MIC assay. The format is cell-based, Pseudomonas aeruginosa. Particulars: Pseudomonas aeruginosa; P. aeruginosa PA14; read-out: Minimum inhibitory concentration.
From the text: as §2, §3

Another series relates to S. aureus (MRSA) MW2. Kind of series: Minimal inhibitory concentration (MIC) assay, micro-dilution. The format is cell-based. Conditions: for MIC: Staphylococcus aureus. The method in brief:
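Strains were grown at 37° C (S. aureus in TSB, E. faecium in BHI broth). MICs were then determined by standard CLSI broth micro-dilution. Each assay was repeated in biological triplicate.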

A further series deals with MRSA MW2. Kind of series: Deep-seated mouse thigh infection model. It counts as in vivo. Conditions: 5 days. How it is done: as §1, with “After incubating the TSA plates at 37° C. overnight, the number of colonies were enumerated to calculate CFU/g thigh tissue. This study and all experiments were performed in accordance with guidelines approved by the Rhode Island Hospital Institutional Animal Care and Use Committee (RIH IACUC).” left out

Series [3] relates to S. aureus and Enterococcus faecium clinical strains. The series can be described thus: MIC against a panel of clinical strains. The format is cell-based. Particulars: panel incl. multidrug-resistant MW2 and VRS1; read-out: minimal inhibitory concentration (MIC).
From the text: as §2, §3

The mark [4] stands for this setting: nTZDpa 50 mg/kg with gentamicin 30 mg/kg.

The structures appear in SMILES notation. ≈ marks a conversion by molar mass, not a printed value. Read-outs that look alike come from different tables or passages of the source. Bounds are passed on as bounds.

Turning to `O=C(O)c1c(Sc2ccccc2)c2cc(Cl)ccc2n1Cc1ccc(Cl)cc1` [nTZDpa], the “MRSA persisters formed in biofilms” value in the series on MRSA MW2 biofilms is reported as “completely eradicated MRSA persisters formed in biofilms”. Further, the BUN entry is “not increasing ALT or BUN” in series [1] (setting [4]) and “did not increase serum levels of ALT or BUN” in series [1] (nTZDpa alone 50 mg/kg i.p.). Further, the entries for the “serum ALT” value in [1] (setting [4]) and in series [1] (nTZDpa alone 50 mg/kg i.p.) were “not increasing ALT or BUN” and “did not increase serum levels of ALT or BUN”, respectively. Moreover, the MIC was 4 µg/mL (≈ 9.34 µM) in the series with E. faecium WC196; 4 µg/mL (≈ 9.34 µM) with E. faecium C68; 4 µg/mL (≈ 9.34 µM) with E.faecium E007; 4 µg/mL (≈ 9.34 µM) in the series with E. faecium WB312; greater than 64 µg/mL with K. pneumoniae WGLW2; 4 µg/mL (≈ 9.34 µM) in [2]. The MIC in the series on P. aeruginosa PA14 was greater than 64 µg/mL; in the series on S. aureus (MRSA) MW2 (S. aureus (MRSA) MW2, read-out: Minimum inhibitory concentration) it was 4 µg/mL (≈ 9.34 µM); in the series with S. aureus (MRSA) MW2 (Table 3, growing MRSA, read-out: MIC), 4 µg/mL (≈ 9.34 µM); in series [3], roughly 4 µg/mL (≈ 9.34 µM). For the same compound, the “MIC relative to MIC of vancomycin” value in the series on S. aureus (MRSA) MW2 (fold higher) was 4 fold. For the same compound, the “persister cells killed in thigh” value in the series on MRSA MW2 (50 mg/kg nTZDpa i.p. with 30 mg/kg gentamicin s.c., p<0.001) is roughly 95%. Moreover, the “MRSA CFUs / viability of persisters in thigh, single agent” value in the series on MRSA MW2 (vancomycin 25 mg/kg i.p., gentamicin 30 mg/kg s.c., nTZDpa 50 mg/kg i.p.) is on record as “no effect on the viability of persisters”.

(Values after patent US11690824B2, “Antibacterial compounds” (THE GENERAL HOSPITAL CORPORATION, priority 2018, dated 2023).)
